According to patent US7794987B2, “Method for treating central neuropathic pain” (UCB Pharma GmbH, priority 2003, dated 2010):

Key:
spinally injured rats [1] = experiment: Single dose of SPM 927 on allodynia-like behaviours in spinally injured rats (von Frey hairs, brushing, cold); format: in vivo, Sprague-Dawley rats; details: intraperitoneally
Method: (§1) Male and female Sprague-Dawley rats (Möllegard, Denmark) weighing 200-250 g at the start of the experiments were used.
(§2) Ischemic spinal cord injury was produced in female rats according to methods described previously (Xu et al., 1992). In brief, the rats were anesthetized with chloral hydrate (300 mg/kg, i.p.) and a midline incision was made on the skin overlying vertebral segments T12-L1. The animals were positioned beneath an argon laser beam and irradiated for 10 min with the beam directed towards vertebral segment T12 or T13 (spinal segments L3-5). Immediately prior to and 5 min after the start of the irradiation, erythrosin B (Red No 3, Aldrich-Chemie, Steinheim, Germany) dissolved in 0.9% saline was injected intravenously through the tail vein at a dose of 32.5 mg/kg. A tunable argon ion laser (Innova model 70, Coherent Laser Product Division, Palo Alto, Calif.) operating at 514 nm was used. The average beam output power was 160 mW. The beam covered the entire width of the vertebra and the length of the beam was 1-2 mm. After irradiation, the wound was closed in layers and the rats were allowed to recover. The bladder was emptied manually for 1 week.
(§3) The vocalization threshold to graded mechanical touch/pressure stimuli were tested with von Frey hairs. During testing the rats were gently restrained in a standing position and the von Frey hair was pushed onto the skin until the filament became bent. The frequency of stimulation was about 1/s and at each intensity the stimulus was applied 5-10 times. The intensity of stimulation which induced consistent vocalization (>75% response rate) was considered as pain threshold.
(§4) The response of rats to brushing stimulation was tested with the blunt point of a pencil gently stroking the skin on the trunk in a rostro-caudal direction. The frequency of the stimulation was about 1/s and responses were graded with a score of 0=no observable response; 1=transient vocalization and moderate effort to avoid probe; 2=consistent vocalization and aversive reactions and 3=sustained and prolonged vocalization and aggressive behaviours.
(§5) Response to cold was tested with ethyl chloride spray applied to the shaved allodynic skin area. The response was graded with a score of 0=no observable response; 1=localized response (skin twitch and contraction), no vocalization; 2=transient vocalization, moderate struggle and 3=sustained vocalization and aggression.
(§6) SPM 927 was dissolved in physiological saline and injected intraperitoneally. The data for von Frey hairs, brushing and cold are expressed as median±median absolute deviation (M.A.D.) and analysed with Wilcoxon signed-ranks test or paired t-test.

spinally injured rats [2] = experiment: Repeated administration of SPM 927 in spinally injured rats (von Frey hairs, brushing, cold); format: in vivo, Sprague-Dawley rats; details: 20 mg/kg twice a day
Method: as §1, §2, §3, §4, §5, §6
The animals were injected with 20 mg/kg SPM 927 twice a day. The pre-drug response and the response 1 h after injection were assessed in the morning session. […] The normalization of basal sensitivity lasted at least 8 days without signs of tolerance.

## COC[C@@H](NC(C)=O)C(=O)NCc1ccccc1 [SPM 927, (R)-2-acetamide-N-benzyl-3-methoxypropionamide]
Spinally injured rats [1]; 10 mg/kg
  effect on mechanical and cold allodynia: no effect
Spinally injured rats [1]; 15 mg/kg
  effect on mechanical and cold allodynia: partially alleviated mechanical and cold allodynia in the majority, but not all, rats
Spinally injured rats [1]; 15 mg/kg, FIG. 1B, C
  effect on brushing and cold: significant effect
Spinally injured rats [1]; 15 mg/kg, FIG. 1a
  increase in threshold to stimulation with von Frey hairs: significant, but did not return to normal level
Spinally injured rats [1]; 20 mg/kg
  duration of complete reversal of mechanical and cold allodynia: about 2 h
  effect on mechanical and cold allodynia: completely reversed mechanical and cold allodynia in all rats
Spinally injured rats [2]; days 1-3
  vocalization threshold to von Frey hair stimulation 1 h after injection: increase in vocalization threshold
Spinally injured rats [2]; discontinued after day 7
  allodynia to stimulation with von Frey hairs and cold after discontinuation: reappeared on day 9
  effect on brush stimulation after discontinuation: maintained up to day 11
Spinally injured rats [2]; FIG. 2A
  pre-drug response to von Frey hair stimulation: normalized on day 4
Spinally injured rats [2]; FIG. 2B, 2C
  baseline responses to brushing and cold: normalized from day 2 to day 6 respectively
Spinally injured rats [2]; without signs of tolerance
  duration of normalization of basal sensitivity: at least 8 days
